Experimental data published in patent publication US12291532B2, “Substituted xanthines as modulators of TRPC5 activity” (Boehringer Ingelheim International GmbH, priority 2018, dated 2025).

Each compound was assayed against T1, TRPC5 (Homo sapiens, UniProt Q9UL62) (assay: Assay A: Determination of TRPC5-Inhibition (whole-cell patch clamp)). Details: compounds of the present invention, TRPC5-expressing HEK293 TREx cells, current activated by LaCl3.
T1 construct: expressed in transfected cells; host or cells: HEK293 TREx (inducible expression, induced 20-48 hours)
T1 sequence (Q9UL62 1-973): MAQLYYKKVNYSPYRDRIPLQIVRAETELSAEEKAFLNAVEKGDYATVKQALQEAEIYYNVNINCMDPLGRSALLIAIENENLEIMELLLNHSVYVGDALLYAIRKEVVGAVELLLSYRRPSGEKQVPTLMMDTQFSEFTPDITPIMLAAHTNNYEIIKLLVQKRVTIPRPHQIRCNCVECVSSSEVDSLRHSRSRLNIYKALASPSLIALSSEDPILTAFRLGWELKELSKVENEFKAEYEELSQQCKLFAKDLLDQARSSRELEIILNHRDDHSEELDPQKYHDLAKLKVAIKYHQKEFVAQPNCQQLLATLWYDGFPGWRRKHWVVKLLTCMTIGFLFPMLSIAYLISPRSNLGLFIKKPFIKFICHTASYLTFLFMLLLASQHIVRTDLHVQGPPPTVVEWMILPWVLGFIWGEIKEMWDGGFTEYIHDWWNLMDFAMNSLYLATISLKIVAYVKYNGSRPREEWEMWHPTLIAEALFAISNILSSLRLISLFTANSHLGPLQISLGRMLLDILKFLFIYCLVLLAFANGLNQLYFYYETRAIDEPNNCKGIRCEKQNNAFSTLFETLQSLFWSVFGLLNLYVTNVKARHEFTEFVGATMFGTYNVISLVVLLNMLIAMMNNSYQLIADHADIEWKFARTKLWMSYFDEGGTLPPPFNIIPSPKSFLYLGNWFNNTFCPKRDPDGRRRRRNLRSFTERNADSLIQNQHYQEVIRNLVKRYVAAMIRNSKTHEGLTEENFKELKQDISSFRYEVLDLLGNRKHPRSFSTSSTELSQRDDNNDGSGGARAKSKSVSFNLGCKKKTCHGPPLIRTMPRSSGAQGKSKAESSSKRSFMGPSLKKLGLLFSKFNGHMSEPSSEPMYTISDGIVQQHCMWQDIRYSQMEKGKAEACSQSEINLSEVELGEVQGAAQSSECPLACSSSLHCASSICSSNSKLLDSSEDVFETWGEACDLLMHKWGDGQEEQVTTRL
Assay type: cell-based
Description: Assay A: Determination of TRPC5-Inhibition
Patch clamp experiments permit the detection of currents through the TRPC5 channel in a cell line. In normal whole-cell patch clamp recordings, a glass electrode is brought into contact with a single cell and a high-resistance (gigaohm) seal is established with the cell membrane. The membrane is then ruptured to achieve the whole-cell configuration, permitting control of the voltage of the cell membrane and measurement of currents flowing across the membrane using the amplifier attached to the electrode and resulting in the replacement of cytoplasm with the pipette solution. A perfusion system permits control of the extracellular solution, including the addition of blockers and activators of the current. The current can be activated by including 1.4 μM free Ca2+ in the pipette (intracellular) solution, and 80 μM LaCl3 in the extracellular solution.
TRPC5 cells were induced 20-48 hours, removed from growth plates, and replated at low density (to attain good single-cell physical separation) on glass coverslips for measurement. In some cases, cells were grown in low density overnight on glass coverslips. Patch clamp recordings were made in the whole-cell mode with a holding potential of −40 mV. Every 5 seconds, a voltage ramp was applied from −120 to +100 mV, 400 ms in duration. Currents elicited were quantified at −80 mV and +80 mV. The internal solution consisted of 140 mM cesium aspartate, 10 mM HEDTA, 2 mM CaCl2, 2.27 mM MgCl2 and 10 mM HEPES, pH 7.2, with 1,400 nM calculated free Ca2+. The external solution consisted of 150 mM NaCl, 4.5 mM 15 KCl, 1 mM MgCl2, 2 mM CaCl2, 10 mM HEPES, 10 mM glucose, 1 mM EGTA, pH 7.4. Upon addition of LaCl3, TRPC5 current was induced only in TRPC5-expressing cells and not in parental HEK293 TREx cells. Removal of the LaCh stimulus causes most of the current to go away. Potential blockers were tested for ability to block both inward and outward currents in the continued presence of LaCl3.
IC50 of a compound of the invention was estimated by testing the compound 500 nM. […] Compounds blocking 50% or more at 500 nM are retested at multiple concentrations, and the % block is fitted by standard equations to determine […] accurately, using a […] concentration-response experiment.

In order of rising IC50:
1. CCn1c(=O)n(CCCO)c(=O)c2c1nc(-c1ncc(OC3CCC3C)nc1C)n2Cc1ccc(Cl)cc1 (stereo not drawn) [Example 1]  0.172 nM
2. Cc1nc(OC2CCC2)cnc1-c1nc2c(c(=O)n(CCCO)c(=O)n2C(C)C)n1Cc1ccccc1 [Example 2]  0.207 nM
3. CCn1c(=O)n(CCCO)c(=O)c2c1nc(-c1ncc(OC3CCC3C)nc1C)n2Cc1ccc(F)cc1 (stereo not drawn) [Example 5]  0.29 nM
4. CCn1c(=O)n(CCCO)c(=O)c2c1nc(-c1cnc(OC3CCC3)cn1)n2Cc1ccc(F)cc1 [Example 3]  0.506 nM
5. CCn1c(=O)n(CCCO)c(=O)c2c1nc(-c1cnc(OC3CCC3)cn1)n2Cc1ccccc1 [Example 4]  1.11 nM
6. CCn1c(=O)n(CCCO)c(=O)c2c1nc(-c1ncc(OC3CCC3)nc1C)n2Cc1ccccc1 [Example 6]  1.22 nM
